Reference: article PMC9186362, “Design and biological evaluation of substituted 5,7-dihydro-6H-indolo[2,3-c]quinolin-6-one as novel selective Haspin inhibitors” (Journal of Enzyme Inhibition and Medicinal Chemistry, 2022)

What was measured:
Assay in all cases: SelectScreen ZLYTE
Assay type in all cases: biochemical
[1] = biological target: T1, ABL1 T315I (Homo sapiens, UniProt P00519, T315I); details: ATP Km, read-out: Percentage of inhibition
T1 construct: purchased Life Technologies (SelectScreen service)
Procedure, shortened: (§1)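 Here 1 μM of inhibitor is profiled against a large kinase collection, and the extent of enzyme inhibition is stated as a percentage.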

[2] = biological target: T2, AXL (Homo sapiens, UniProt P30530); details: ATP Km, read-out: Percentage of inhibition
T2 construct: purchased Life Technologies
Procedure, shortened: as §1

[3] = biological target: T3, BRAF (Homo sapiens, UniProt P15056); details: ATP 100 µM, read-out: Percentage of inhibition
T3 construct: purchased Life Technologies (SelectScreen Whole Panel)
Procedure, shortened: as §1

[4] = biological target: T4, BRAF V599E (Homo sapiens, UniProt P15056, V600E); details: ATP 100 µM, read-out: Percentage of inhibition
T4 construct: purchased Life Technologies
Procedure, shortened: as §1

[5] = biological target: CAMK1G (CAMKI gamma) (Homo sapiens, UniProt Q96NX5); details: ATP Km, read-out: Percentage of inhibition
Procedure, shortened: as §1

[6] = biological target: T5, CAMK2B (CaMKII beta) (Homo sapiens, UniProt Q13554); details: ATP Km, read-out: Percentage of inhibition
T5 construct: purchased Life Technologies (SelectScreen Whole Panel service)
Procedure, shortened: as §1

[7] = biological target: T6, CDK5/p25 (Homo sapiens, UniProt Q00535); details: ATP Km, read-out: Percentage of inhibition
T6 construct: purchased Life Technologies
Procedure, shortened: as §1

[8] = biological target: CLK3 (Homo sapiens, UniProt P49761); details: ATP Km, read-out: Percentage of inhibition
Chain of CLK3 (P49761 whole entry): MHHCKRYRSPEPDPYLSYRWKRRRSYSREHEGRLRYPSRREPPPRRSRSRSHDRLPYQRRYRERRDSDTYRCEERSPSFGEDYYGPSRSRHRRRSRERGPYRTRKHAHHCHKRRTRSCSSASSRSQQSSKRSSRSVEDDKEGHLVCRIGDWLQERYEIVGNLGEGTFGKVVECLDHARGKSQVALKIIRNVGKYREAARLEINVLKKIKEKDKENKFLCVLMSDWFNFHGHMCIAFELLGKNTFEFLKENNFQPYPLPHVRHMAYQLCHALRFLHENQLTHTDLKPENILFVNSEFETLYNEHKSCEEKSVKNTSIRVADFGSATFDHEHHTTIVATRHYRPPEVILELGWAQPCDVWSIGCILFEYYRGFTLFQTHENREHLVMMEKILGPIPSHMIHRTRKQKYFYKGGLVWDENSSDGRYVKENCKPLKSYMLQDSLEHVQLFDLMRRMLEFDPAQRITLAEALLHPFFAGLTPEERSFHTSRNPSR
Procedure, shortened: as §1

[9] = biological target: T7, CSNK1D (CK1 delta) (Homo sapiens, UniProt P48730); details: ATP Km, read-out: Percentage of inhibition
T7 construct: purchased Life Technologies (SelectScreen service)
Procedure, shortened: as §1

[10] = biological target: T8, CSNK1G3 (CK1 gamma 3) (Homo sapiens, UniProt Q9Y6M4); details: ATP Km, read-out: Percentage of inhibition
T8 construct: purchased Life Technologies
Procedure, shortened: as §1

[11] = biological target: T9, EEF2K (Homo sapiens, UniProt O00418); details: ATP Km, read-out: Percentage of inhibition
T9 construct: purchased Life Technologies (SelectScreen)
Procedure, shortened: as §1

[12] = biological target: T10, EGFR (ErbB1) L858R (Homo sapiens, UniProt P00533, L858R); details: ATP Km, read-out: Percentage of inhibition
T10 construct: purchased Life Technologies (SelectScreen Whole Panel)
Procedure, shortened: as §1

[13] = biological target: T11, EGFR (ErbB1) L861Q (Homo sapiens, UniProt P00533, L861Q); details: ATP Km, read-out: Percentage of inhibition
T11 construct: purchased Life Technologies (SelectScreen)
Procedure, shortened: as §1

[14] = biological target: T12, EGFR (ErbB1) T790M (Homo sapiens, UniProt P00533, T790M); details: ATP Km, read-out: Percentage of inhibition
T12 construct: purchased Life Technologies
Procedure, shortened: as §1

[15] = biological target: FER (Homo sapiens, UniProt P16591); details: ATP Km, read-out: Percentage of inhibition
Procedure, shortened: as §1

[16] = biological target: T13, GSK3A (GSK3 alpha) (Homo sapiens, UniProt P49840); details: ATP Km, read-out: Percentage of inhibition
T13 construct: purchased Life Technologies (SelectScreen service)
Procedure, shortened: as §1

[17] = biological target: T14, HCK (Homo sapiens, UniProt P08631); details: ATP Km, read-out: Percentage of inhibition
T14 construct: purchased Life Technologies
T14 sequence (P08631 whole entry): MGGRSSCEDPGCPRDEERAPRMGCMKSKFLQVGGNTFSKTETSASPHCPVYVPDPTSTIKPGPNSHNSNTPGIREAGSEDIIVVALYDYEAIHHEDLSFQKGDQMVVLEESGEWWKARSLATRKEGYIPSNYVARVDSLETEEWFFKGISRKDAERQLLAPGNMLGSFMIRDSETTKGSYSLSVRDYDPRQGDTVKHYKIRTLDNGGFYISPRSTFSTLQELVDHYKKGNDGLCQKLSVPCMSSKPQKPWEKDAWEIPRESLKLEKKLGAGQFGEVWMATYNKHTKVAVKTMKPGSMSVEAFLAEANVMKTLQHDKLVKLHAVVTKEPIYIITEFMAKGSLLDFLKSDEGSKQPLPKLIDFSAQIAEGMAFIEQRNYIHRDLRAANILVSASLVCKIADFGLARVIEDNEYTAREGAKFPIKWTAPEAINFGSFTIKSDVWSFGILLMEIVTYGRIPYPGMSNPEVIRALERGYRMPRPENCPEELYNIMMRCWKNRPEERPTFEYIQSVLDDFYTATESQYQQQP
Procedure, shortened: as §1

[18] = biological target: T15, HIPK4 (Homo sapiens, UniProt Q8NE63); details: ATP Km, read-out: Percentage of inhibition
T15 construct: purchased Life Technologies (SelectScreen service)
Procedure, shortened: as §1

[19] = biological target: IRAK4 (Homo sapiens, UniProt Q9NWZ3); details: ATP Km, read-out: Percentage of inhibition
Procedure, shortened: as §1

[20] = biological target: T16, MAP2K1 (MEK1) (Homo sapiens, UniProt Q02750); details: ATP 100 µM, read-out: Percentage of inhibition
T16 construct: purchased Life Technologies (SelectScreen Whole Panel)
Procedure, shortened: as §1

[21] = biological target: T17, MAP3K19 (YSK4) (Homo sapiens, UniProt Q56UN5); details: ATP Km, read-out: Percentage of inhibition
T17 construct: purchased Life Technologies (SelectScreen Whole Panel)
Procedure, shortened: as §1

[22] = biological target: T18, MAPK8 (JNK1) (Homo sapiens, UniProt P45983); details: ATP 10 µM, read-out: Percentage of inhibition
T18 construct: purchased Life Technologies (SelectScreen Whole Panel service)
T18 sequence (P45983 whole entry): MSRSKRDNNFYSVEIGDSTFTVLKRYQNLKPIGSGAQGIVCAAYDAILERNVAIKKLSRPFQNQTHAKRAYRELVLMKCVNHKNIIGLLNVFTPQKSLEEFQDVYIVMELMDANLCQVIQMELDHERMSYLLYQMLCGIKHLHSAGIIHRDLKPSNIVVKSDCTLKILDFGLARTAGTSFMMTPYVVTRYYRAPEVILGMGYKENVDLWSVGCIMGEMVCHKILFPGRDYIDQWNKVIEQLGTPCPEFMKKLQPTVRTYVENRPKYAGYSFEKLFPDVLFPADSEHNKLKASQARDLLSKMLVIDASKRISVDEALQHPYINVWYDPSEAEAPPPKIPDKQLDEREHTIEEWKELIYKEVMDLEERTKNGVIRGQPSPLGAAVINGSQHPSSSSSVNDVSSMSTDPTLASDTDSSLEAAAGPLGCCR
Procedure, shortened: as §1

[23] = biological target: T19, MET M1250T (Homo sapiens, UniProt P08581, M1250T); details: ATP Km, read-out: Percentage of inhibition
T19 construct: purchased Life Technologies (SelectScreen Whole Panel service)
Procedure, shortened: as §1

[24] = biological target: T20, NEK1 (Homo sapiens, UniProt Q96PY6); details: ATP Km, read-out: Percentage of inhibition
T20 construct: purchased Life Technologies (SelectScreen Whole Panel service)
T20 sequence (Q96PY6 whole entry): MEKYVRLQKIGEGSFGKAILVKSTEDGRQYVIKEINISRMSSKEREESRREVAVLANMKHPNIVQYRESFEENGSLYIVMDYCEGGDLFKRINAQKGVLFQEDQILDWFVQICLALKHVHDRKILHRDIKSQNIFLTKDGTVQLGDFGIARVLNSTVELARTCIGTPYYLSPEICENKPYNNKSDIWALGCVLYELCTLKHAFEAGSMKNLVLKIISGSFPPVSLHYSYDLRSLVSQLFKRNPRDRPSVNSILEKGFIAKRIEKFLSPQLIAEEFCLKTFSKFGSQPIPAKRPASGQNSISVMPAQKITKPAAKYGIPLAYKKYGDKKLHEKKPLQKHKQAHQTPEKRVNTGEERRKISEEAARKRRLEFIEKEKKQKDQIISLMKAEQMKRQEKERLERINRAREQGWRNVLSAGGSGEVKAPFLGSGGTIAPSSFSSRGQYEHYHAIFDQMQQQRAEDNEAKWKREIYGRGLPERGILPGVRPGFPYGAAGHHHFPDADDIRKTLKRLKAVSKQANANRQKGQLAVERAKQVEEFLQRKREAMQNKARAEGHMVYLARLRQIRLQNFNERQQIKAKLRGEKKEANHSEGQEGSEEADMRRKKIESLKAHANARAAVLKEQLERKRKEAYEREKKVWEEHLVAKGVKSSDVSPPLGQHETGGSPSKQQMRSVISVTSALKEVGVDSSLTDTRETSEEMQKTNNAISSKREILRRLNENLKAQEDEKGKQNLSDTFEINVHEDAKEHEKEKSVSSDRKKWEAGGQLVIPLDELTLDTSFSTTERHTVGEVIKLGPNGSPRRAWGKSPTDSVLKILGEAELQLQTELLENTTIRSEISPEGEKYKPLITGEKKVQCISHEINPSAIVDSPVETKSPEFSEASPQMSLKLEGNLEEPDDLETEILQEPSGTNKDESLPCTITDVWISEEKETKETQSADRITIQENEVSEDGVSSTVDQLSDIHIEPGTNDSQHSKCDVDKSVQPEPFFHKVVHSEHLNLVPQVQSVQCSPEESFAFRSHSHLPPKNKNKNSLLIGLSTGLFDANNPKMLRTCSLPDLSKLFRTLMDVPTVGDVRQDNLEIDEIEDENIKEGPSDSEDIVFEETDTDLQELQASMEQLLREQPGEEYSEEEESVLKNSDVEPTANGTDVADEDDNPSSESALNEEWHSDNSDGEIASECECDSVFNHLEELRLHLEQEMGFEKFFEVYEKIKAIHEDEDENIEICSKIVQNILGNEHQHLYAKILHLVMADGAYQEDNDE
Procedure, shortened: as §1

[25] = biological target: T21, NEK6 (Homo sapiens, UniProt Q9HC98); details: ATP Km, read-out: Percentage of inhibition
T21 construct: purchased Life Technologies (SelectScreen)
Procedure, shortened: as §1

[26] = biological target: T22, PDGFRA V561D (Homo sapiens, UniProt P16234, V561D); details: ATP Km, read-out: Percentage of inhibition
T22 construct: purchased Life Technologies (SelectScreen service)
Procedure, shortened: as §1

[27] = biological target: T23, PDGFRB (PDGFR beta) (Homo sapiens, UniProt P09619); details: ATP Km, read-out: Percentage of inhibition
T23 construct: purchased Life Technologies (SelectScreen service)
T23 sequence (P09619 33-1106): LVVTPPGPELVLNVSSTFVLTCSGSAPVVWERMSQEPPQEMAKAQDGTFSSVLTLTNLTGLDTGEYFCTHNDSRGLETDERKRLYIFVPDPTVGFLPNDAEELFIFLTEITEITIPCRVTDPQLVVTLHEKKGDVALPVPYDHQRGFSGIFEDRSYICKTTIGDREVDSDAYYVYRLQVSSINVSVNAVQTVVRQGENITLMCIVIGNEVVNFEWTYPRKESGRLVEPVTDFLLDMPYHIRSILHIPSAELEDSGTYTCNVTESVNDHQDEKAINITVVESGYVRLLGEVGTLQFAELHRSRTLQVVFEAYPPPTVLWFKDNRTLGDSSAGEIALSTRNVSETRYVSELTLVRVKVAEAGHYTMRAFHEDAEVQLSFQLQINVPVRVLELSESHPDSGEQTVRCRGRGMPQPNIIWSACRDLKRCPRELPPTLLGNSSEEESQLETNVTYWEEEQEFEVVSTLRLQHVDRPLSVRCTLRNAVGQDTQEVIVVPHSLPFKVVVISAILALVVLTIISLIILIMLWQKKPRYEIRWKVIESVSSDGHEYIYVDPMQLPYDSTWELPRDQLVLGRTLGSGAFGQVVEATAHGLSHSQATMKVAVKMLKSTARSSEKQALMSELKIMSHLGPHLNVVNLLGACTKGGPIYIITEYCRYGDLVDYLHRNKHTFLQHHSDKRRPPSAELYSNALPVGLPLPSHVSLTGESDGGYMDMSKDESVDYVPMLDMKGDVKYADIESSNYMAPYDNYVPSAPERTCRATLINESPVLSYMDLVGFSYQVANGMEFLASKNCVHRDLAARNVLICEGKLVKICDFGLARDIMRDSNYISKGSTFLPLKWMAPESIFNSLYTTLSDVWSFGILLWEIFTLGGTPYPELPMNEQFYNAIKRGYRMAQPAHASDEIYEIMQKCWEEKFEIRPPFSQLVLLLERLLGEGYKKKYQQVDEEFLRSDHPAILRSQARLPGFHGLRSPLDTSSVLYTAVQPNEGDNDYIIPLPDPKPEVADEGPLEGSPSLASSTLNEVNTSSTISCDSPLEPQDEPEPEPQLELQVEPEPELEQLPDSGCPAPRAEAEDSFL
Procedure, shortened: as §1

[28] = biological target: PRKCA (PKC alpha) (Homo sapiens, UniProt P17252); details: ATP Km, read-out: Percentage of inhibition
Procedure, shortened: as §1

[29] = biological target: T24, PRKCN (PKD3) (Homo sapiens, UniProt O94806); details: ATP Km, read-out: Percentage of inhibition
T24 construct: purchased Life Technologies
Procedure, shortened: as §1

[30] = biological target: PRKX (Homo sapiens, UniProt P51817); details: ATP Km, read-out: Percentage of inhibition
Procedure, shortened: as §1

[31] = biological target: T25, RET A883F (Homo sapiens, UniProt P07949, A883F); details: ATP Km, read-out: Percentage of inhibition
T25 construct: purchased Life Technologies (SelectScreen service)
T25 sequence (P07949 29-1114 A883F): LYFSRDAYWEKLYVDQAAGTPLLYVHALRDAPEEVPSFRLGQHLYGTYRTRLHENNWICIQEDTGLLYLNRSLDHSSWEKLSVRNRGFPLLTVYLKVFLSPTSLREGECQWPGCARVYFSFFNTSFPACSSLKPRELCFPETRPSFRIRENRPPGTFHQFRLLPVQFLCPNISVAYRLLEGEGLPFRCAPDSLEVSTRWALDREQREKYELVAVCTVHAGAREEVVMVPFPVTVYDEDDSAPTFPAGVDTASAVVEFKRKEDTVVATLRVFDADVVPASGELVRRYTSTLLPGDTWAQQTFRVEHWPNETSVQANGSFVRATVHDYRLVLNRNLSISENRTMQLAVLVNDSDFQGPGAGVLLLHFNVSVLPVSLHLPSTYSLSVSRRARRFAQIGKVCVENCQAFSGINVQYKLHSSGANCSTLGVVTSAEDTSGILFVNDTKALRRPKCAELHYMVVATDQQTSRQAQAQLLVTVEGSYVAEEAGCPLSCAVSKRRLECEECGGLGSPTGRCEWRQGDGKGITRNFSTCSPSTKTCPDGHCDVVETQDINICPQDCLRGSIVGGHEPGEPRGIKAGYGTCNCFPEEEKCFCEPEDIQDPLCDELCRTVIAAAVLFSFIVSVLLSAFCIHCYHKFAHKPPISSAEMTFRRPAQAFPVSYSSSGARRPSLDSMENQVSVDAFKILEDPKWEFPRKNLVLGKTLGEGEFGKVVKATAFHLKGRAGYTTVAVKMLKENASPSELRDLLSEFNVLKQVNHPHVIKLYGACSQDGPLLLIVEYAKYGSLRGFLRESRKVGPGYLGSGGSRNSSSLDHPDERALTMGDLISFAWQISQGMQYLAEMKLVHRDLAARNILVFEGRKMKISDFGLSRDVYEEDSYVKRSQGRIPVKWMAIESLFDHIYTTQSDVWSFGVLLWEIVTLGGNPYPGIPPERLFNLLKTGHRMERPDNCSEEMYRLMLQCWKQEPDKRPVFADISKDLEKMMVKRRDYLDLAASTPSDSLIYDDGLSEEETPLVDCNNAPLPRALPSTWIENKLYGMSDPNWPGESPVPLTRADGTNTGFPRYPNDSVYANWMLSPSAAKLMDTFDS
Procedure, shortened: as §1

[32] = biological target: T26, RET V804L (Homo sapiens, UniProt P07949, V804L); details: ATP Km, read-out: Percentage of inhibition
T26 construct: purchased Life Technologies
T26 sequence (P07949 29-1114 V804L): as the sequence (P07949 29-1114 A883F) above, with V776L, F855A counted along it
Procedure, shortened: as §1

[33] = biological target: T27, RET Y791F (Homo sapiens, UniProt P07949, Y791F); details: ATP Km, read-out: Percentage of inhibition
T27 construct: purchased Life Technologies
T27 sequence (P07949 29-1114 Y791F): as the sequence (P07949 29-1114 A883F) above, with Y763F, F855A counted along it
Procedure, shortened: as §1

[34] = biological target: T28, RPS6KB2 (p70S6Kb) (Homo sapiens, UniProt Q9UBS0); details: ATP Km, read-out: Percentage of inhibition
T28 construct: purchased Life Technologies (SelectScreen)
Procedure, shortened: as §1

[35] = biological target: T29, STK22B (TSSK2) (Homo sapiens, UniProt Q96PF2); details: ATP Km, read-out: Percentage of inhibition
T29 construct: purchased Life Technologies
Procedure, shortened: as §1

[36] = biological target: T30, TBK1 (Homo sapiens, UniProt Q9UHD2); details: ATP Km, read-out: Percentage of inhibition
T30 construct: purchased Life Technologies (SelectScreen Whole Panel service)
Procedure, shortened: as §1

[37] = biological target: T31, TEK (TIE2) Y897S (Homo sapiens, UniProt Q02763, Y897S); details: ATP Km, read-out: Percentage of inhibition
T31 construct: purchased Life Technologies (SelectScreen Whole Panel)
Procedure, shortened: as §1

SMILES: COc1ccc2[nH]c3c(=O)[nH]c4ccc(O)cc4c3c2c1 [Compound 55, 2-Hydroxy-10-methoxy-5,7-dihydro-6H-indolo[2,3-c]quinolin-6-one]
- inhibition at 1 µM [1]: 24%
- inhibition at 1 µM [2]: 37%
- inhibition at 1 µM [3]: 100%
- inhibition at 1 µM [4]: 96%
- inhibition at 1 µM [5]: 14%
- inhibition at 1 µM [6]: 12%
- inhibition at 1 µM [7]: 33%
- inhibition at 1 µM [8]: 57%
- inhibition at 1 µM [9]: 81%
- inhibition at 1 µM [10]: 28%
- inhibition at 1 µM [11]: 7%
- inhibition at 1 µM [12]: -1%
- inhibition at 1 µM [13]: 9%
- inhibition at 1 µM [14]: 30%
- inhibition at 1 µM [15]: 56%
- inhibition at 1 µM [16]: 82%
- inhibition at 1 µM [17]: 38%
- inhibition at 1 µM [18]: 24%
- inhibition at 1 µM [19]: 61%
- inhibition at 1 µM [20]: 98%
- inhibition at 1 µM [21]: 49%
- inhibition at 1 µM [22]: 15%
- inhibition at 1 µM [23]: 12%
- inhibition at 1 µM [24]: 17%
- inhibition at 1 µM [25]: 8%
- inhibition at 1 µM [26]: 79%
- inhibition at 1 µM [27]: 23%
- inhibition at 1 µM [28]: 14%
- inhibition at 1 µM [29]: 40%
- inhibition at 1 µM [30]: 7%
- inhibition at 1 µM [31]: 85%
- inhibition at 1 µM [32]: 98%
- inhibition at 1 µM [33]: 96%
- inhibition at 1 µM [34]: 8%
- inhibition at 1 µM [35]: 5%
- inhibition at 1 µM [36]: 49%
- inhibition at 1 µM [37]: 1%
